Columns and labels:
MV4-11 = assay: Cellular MV4-11 viability assay (CellTiter-Glo, 72 hours); type: cell-based; settings: Homo sapiens
Procedure, shortened: (§1)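 Growth inhibition is assessed over a 72-hour incubation at 37 °C in 5% CO2, relative to DMSO vehicle (final concentration less than 0.1%). Luminescence from CellTiter-Glo serves as the viability signal.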

MM.1S = assay: Cellular MM.1S viability assay (CellTiter-Glo, 72 hours); type: cell-based; settings: Homo sapiens, MM1.S
Source text: Human T-cell acute lymphoblastic leukemia cell line, MOLT-4 (ATCC, Cat #CRL-1582), Human multiple myeloma cell line, RPMI-8226 (Invitrogen, Cat #22400-089) and MM.1S (ATCC, Cat #CRL-2974), NSCLC (Non-small cell lung cancer) cell line H460 (ATCC, Cat #HTB-177), Human colon colorectal carcinoma cell line HCT116 (ATCC, Cat #CCL-247), Human acute monocytic leukemia cell line MV4-11 (ATCC, Cat #CRL-9591), OVCAR-3 (ATCC, Cat #HTB-161) and A2780 (ECACC, Cat #93112519) were obtained from ATCC. Cells were grown in RPMI-1640 media (Invitrogen, Cat #22400-089) supplemented with 10% FBS (Invitrogen, Cat #10099141) and 1% penicillin/streptomycin (Invitrogen, Cat #15070063) and cultured at 37° C., 5% CO2 in a humidified chamber. All cell lines were routinely tested for mycoplasma.
The effect of the CDK7 inhibitor to inhibit the growth of target cancer cells was evaluated through the 72 hours time period of viability assay. Briefly, the candidate cell line ware plated in 96 well plate at the following density of cells respectively. 1×10^4 cells/well for MOLT-4, RPMI-8226, MV4-11 and MM.1S, 5×10^3 for H460, HCT116 and OVCAR-3 and IX 10^3 for A2780. After 24 hours, the cells were treated with various concentrations of the compound (ranging from 0.0015 uM to 10 uM). DMSO solvent without compound served as a control and final DMSO concentration less than 0.1%. After 72 hours of incubation at 37° C., 5% CO2 incubator, cells were analyzed for the viability using the CellTiter-Glo Luminescent Cell Viability Assay (Promega, Cat #G7570). All viability assays were performed in duplicate and Luminescence was read using an Envision (Perkin Elmer, USA). Data was analyzed using XLfit software.

H460 = assay: Cellular H460 viability assay (CellTiter-Glo, 72 hours); type: cell-based; settings: Homo sapiens, NCI-H460
Procedure, shortened: as §1

HCT116 = assay: Cellular HCT116 viability assay (CellTiter-Glo, 72 hours); type: cell-based; settings: Homo sapiens, HCT-116
Procedure, shortened: as §1

CDK2/Cyclin A = target: T1, CDK2/Cyclin A (Homo sapiens, UniProt P24941); assay: Enzymatic assay for CDK2 (FRET based LANCE Ultra kinase assay); type: biochemical; settings: read-out: CDK2 enzymatic activity (IC50 range)
T1 construct: purchased Invitrogen PV6290
Procedure, shortened: (§2)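 TR-FRET (LANCE Ultra) kinase assay at ATP Km, ULight-MBP peptide substrate (68 nM), 8-dose 4-fold compound series in DMSO. Enzymes: […]; 60 min at 23° C., stopped with EDTA plus Eu-anti-phospho-MBP antibody, read 665/615 nm after 60 min.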

CDK5/p25 = target: T2, CDK5/p25 (Homo sapiens, UniProt Q00535); assay: Enzymatic assay for CDK5 (FRET based LANCE Ultra kinase assay); type: biochemical; settings: read-out: CDK5 enzymatic activity (IC50 range)
T2 construct: purchased Invitrogen PR8543B
T2 sequence (Q00535 whole entry): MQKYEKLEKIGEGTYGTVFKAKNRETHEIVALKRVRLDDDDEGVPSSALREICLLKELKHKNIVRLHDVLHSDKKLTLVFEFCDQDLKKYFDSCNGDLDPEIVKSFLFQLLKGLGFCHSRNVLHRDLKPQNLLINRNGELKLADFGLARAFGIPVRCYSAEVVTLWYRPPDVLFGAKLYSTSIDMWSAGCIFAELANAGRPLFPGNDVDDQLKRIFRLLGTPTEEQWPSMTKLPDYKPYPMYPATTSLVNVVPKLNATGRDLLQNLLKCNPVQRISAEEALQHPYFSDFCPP
T2 sequence (Q15078 99-307 partner limits assumed): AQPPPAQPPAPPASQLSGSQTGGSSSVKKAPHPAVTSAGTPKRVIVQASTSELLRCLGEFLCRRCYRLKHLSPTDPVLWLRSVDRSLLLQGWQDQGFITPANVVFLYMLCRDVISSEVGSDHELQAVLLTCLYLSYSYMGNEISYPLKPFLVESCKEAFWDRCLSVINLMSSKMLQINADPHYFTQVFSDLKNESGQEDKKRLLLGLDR
Procedure, shortened: as §2

CDK7/Cyclin H/MNAT1 = target: T3, CDK7/Cyclin H/MNAT1 (Homo sapiens, UniProt P50613); assay: Enzymatic assay for CDK7 (FRET based LANCE Ultra kinase assay); type: biochemical; settings: for IC50: read-out: CDK7 enzymatic activity (IC50 range)
T3 construct: purchased Invitrogen PR6749B
T3 sequence (P50613 whole entry): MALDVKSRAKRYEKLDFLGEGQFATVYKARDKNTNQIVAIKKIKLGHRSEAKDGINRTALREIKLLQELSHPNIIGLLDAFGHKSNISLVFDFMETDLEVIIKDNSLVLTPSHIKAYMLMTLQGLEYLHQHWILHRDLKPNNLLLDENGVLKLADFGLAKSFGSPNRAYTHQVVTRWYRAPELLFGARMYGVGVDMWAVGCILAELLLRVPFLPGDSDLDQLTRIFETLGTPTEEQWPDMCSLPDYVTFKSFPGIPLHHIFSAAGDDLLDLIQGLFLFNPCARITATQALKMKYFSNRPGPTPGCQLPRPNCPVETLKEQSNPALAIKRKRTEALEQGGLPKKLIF
T3 sequence (P51946 whole entry partner): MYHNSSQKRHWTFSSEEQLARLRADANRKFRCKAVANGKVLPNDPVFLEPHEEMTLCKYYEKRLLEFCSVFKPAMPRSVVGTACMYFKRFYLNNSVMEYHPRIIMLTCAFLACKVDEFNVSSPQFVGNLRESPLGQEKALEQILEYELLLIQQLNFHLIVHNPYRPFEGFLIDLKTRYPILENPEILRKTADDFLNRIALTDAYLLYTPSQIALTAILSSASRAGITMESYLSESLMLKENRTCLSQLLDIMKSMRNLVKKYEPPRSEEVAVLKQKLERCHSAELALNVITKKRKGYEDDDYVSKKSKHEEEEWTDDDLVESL
T3 sequence (P51948 whole entry partner): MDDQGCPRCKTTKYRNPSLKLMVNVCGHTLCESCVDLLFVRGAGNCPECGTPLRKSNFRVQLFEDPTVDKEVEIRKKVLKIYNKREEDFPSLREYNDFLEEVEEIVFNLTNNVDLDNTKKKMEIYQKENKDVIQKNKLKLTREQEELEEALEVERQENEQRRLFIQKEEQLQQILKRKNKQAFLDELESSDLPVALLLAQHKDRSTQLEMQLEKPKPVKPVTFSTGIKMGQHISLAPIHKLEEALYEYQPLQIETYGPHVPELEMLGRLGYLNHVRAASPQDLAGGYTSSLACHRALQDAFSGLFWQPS
Procedure, shortened: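 Inhibition was measured at Km ATP by time-resolved FRET between a Eu anti-phospho antibody and a phosphorylated ULight peptide. The enzyme was the purified CDK7/cyclin complex, and data were curve-fitted.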

CDK1/Cyclin B = target: T4, CDK1/Cyclin B (Homo sapiens, UniProt P06493); assay: Enzymatic assay for CDK1 (FRET based LANCE Ultra kinase assay); type: biochemical; settings: read-out: CDK1 enzymatic activity (IC50 range)
T4 construct: purchased Invitrogen PR4768C
T4 sequence (P06493 whole entry): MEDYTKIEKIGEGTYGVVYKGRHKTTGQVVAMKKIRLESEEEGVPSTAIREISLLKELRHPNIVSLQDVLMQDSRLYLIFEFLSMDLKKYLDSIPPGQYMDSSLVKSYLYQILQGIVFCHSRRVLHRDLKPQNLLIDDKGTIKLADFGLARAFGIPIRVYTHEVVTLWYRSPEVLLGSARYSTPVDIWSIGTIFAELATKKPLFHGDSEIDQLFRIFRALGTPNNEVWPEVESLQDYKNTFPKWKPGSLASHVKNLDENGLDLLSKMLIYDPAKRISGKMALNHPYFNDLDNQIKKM
T4 sequence (P14635 whole entry partner): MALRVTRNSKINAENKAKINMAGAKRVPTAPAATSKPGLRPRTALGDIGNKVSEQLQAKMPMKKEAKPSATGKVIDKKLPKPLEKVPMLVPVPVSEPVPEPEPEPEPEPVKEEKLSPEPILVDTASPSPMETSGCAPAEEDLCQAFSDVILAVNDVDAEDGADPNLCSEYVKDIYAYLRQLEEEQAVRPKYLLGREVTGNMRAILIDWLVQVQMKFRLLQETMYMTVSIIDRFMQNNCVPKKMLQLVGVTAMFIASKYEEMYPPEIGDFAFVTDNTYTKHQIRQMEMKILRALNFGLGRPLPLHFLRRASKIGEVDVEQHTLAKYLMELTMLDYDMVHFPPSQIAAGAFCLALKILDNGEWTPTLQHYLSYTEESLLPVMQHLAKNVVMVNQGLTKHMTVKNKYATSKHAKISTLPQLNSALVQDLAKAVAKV
Procedure, shortened: as §2

Structure (SMILES)	IC50 (MV4-11)	IC50 (MM.1S)	IC50 (H460)	IC50 (HCT116)	IC50 (CDK2/Cyclin A)	IC50 (CDK5/p25)	CDK1/CDK7: Selectivity of CDK7 inhibition over CDK1 inhibition (CDK7/Cyclin H/MNAT1)	CDK2/CDK7: Selectivity of CDK7 inhibition over CDK2 inhibition (CDK7/Cyclin H/MNAT1)	CDK5/CDK7: Selectivity of CDK7 inhibition over CDK5 inhibition (CDK7/Cyclin H/MNAT1)	IC50 (CDK7/Cyclin H/MNAT1)	IC50 (CDK1/Cyclin B)
CC(C)c1cnn2c(NCc3c(Cl)cccc3-n3cc(N4CCNCC4)cn3)nc(N3CCC(N)CC3)nc12 [Compound 193]	< 1 µM	≤ 1 µM	< 1 µM	< 1 µM	> 1 µM	0.1 to 1 µM	A (A=greater than 200 fold)	A (A=greater than 200 fold)	B (B=less than 200 fold, but greater than 20 fold)	< 0.1 µM	> 1 µM
CC(C)c1cnn2c(N[C@@H](C)c3ccccc3-n3cc(N4CCNCC4)cn3)nc(N3CCC(N)CC3)nc12 [Compound 192]	< 1 µM	1 to 10 µM	1 to 10 µM	< 1 µM	> 1 µM	> 1 µM	A (A=greater than 200 fold)	A (A=greater than 200 fold)	A (A=greater than 200 fold)	< 0.1 µM	> 1 µM
CC(C)c1cnn2c(NCc3ccccc3-n3cc4cc(C(=O)NC5COC5)ccc4n3)nc(N3CCC(N)CC3)nc12 [Compound 176]	< 1 µM	≤ 1 µM	< 1 µM		0.1 to 1 µM	0.1 to 1 µM	B (B=less than 200 fold, but greater than 20 fold)	B (B=less than 200 fold, but greater than 20 fold)	B (B=less than 200 fold, but greater than 20 fold)	< 0.1 µM	0.1 to 1 µM
CC(C)c1cnn2c(NCc3c(Cl)cccc3-n3ccc(C(=O)NC4CCNCC4)n3)nc(N3CCC(N)CC3)nc12 [Compound 196]	< 1 µM	1 to 10 µM	1 to 10 µM	< 1 µM	> 1 µM	0.1 to 1 µM	A (A=greater than 200 fold)	A (A=greater than 200 fold)	A (A=greater than 200 fold)	< 0.1 µM	> 1 µM
Cc1[nH]c(-c2ccccc2CNc2nc(N3CCC(N)CC3)nc3c(C(C)C)cnn23)nc1C(=O)NC1CCOCC1 [Compound 178]	< 1 µM	≤ 1 µM	< 1 µM		0.1 to 1 µM	< 0.1 µM	A (A=greater than 200 fold)	B (B=less than 200 fold, but greater than 20 fold)	C (C=less than 20 fold)	< 0.1 µM	> 1 µM
CC(C)c1cnn2c(N[C@H](C)c3ccccc3-c3cc4ccccc4[nH]3)nc(N3CCC(N)CC3)nc12 [Compound 188]	1 to 10 µM	1 to 10 µM	1 to 10 µM		> 1 µM	> 1 µM	B (B=less than 200 fold, but greater than 20 fold)	C (C=less than 20 fold)	C (C=less than 20 fold)	0.1 to 1 µM	> 1 µM
CC(C)c1cnn2c(NCc3c(O)cccc3-c3cc4ccccc4[nH]3)nc(N3CCC(N)CC3)nc12 [Compound 185]	1 to 10 µM	1 to 10 µM	1 to 10 µM		> 1 µM	> 1 µM	A (A=greater than 200 fold)	A (A=greater than 200 fold)	B (B=less than 200 fold, but greater than 20 fold)	< 0.1 µM	> 1 µM
COc1cccc(-c2cc3ccccc3[nH]2)c1CNc1nc(N2CCC(N)CC2)nc2c(C(C)C)cnn12 [Compound 186]	1 to 10 µM	1 to 10 µM	1 to 10 µM		> 1 µM	> 1 µM	A (A=greater than 200 fold)	A (A=greater than 200 fold)	B (B=less than 200 fold, but greater than 20 fold)	< 0.1 µM	> 1 µM
CNC(=O)c1cccc(F)c1CNc1nc(N2CCC(N)CC2)nc2c(C(C)(C)C)cnn12 [Compound 20]	< 1 µM	1 to 10 µM	< 1 µM		> 1 µM	> 1 µM	A (A=greater than 200 fold)	A (A=greater than 200 fold)	A (A=greater than 200 fold)	< 0.1 µM	> 1 µM
CC(C)(C)c1cnn2c(NCc3c(F)cccc3-n3cccn3)nc(N3CCC(N)CC3)nc12 [Compound 13]		≤ 1 µM	< 1 µM		> 1 µM	0.1 to 1 µM	A (A=greater than 200 fold)	B (B=less than 200 fold, but greater than 20 fold)	B (B=less than 200 fold, but greater than 20 fold)	< 0.1 µM	> 1 µM
CC(C)c1cnn2c(N[C@@H](C)c3ccccc3-c3cc4ccccc4[nH]3)nc(N3CCC(N)CC3)nc12 [Compound 187]	1 to 10 µM	1 to 10 µM	1 to 10 µM		> 1 µM	> 1 µM	A (A=greater than 200 fold)	A (A=greater than 200 fold)	A (A=greater than 200 fold)	< 0.1 µM	> 1 µM

Reference: US11945822B2, “Pyrazolo-triazine and/or pyrazolo-pxrimidine derivatives as selective inhibitor of cyclin dependent kinase” (QURIENT CO., LTD., priority 2018, dated 2024)
